According to US20220291236A1, “DETECTION OF DYSTROGLYCAN” (ML Bio Solutions Inc., priority 2021, published 2022):

Test system: alpha-dystroglycan (αDG)
Assay: Multiplexed Western Blot of total αDG and glycosylated αDG in muscle lysates of P448L mutant FKRP mice untreated or treated with 5% Ribitol
Assay type: in vivo, mouse
Conditions: 5% Ribitol treated P488L mice compared to untreated P488L mice, heart muscle and TA lysates, region ~50-250 kDa
Method: Tissue samples were processed using a TissueLyzer IITM (Qiagen®). Approximately 250 milligrams (mg) of tissue was placed in a 2 mL microtube with a steel bead and 1 mL of Radioimmunoprecipitation assay buffer (RIPA) buffer supplemented with protease and phosphatase inhibitors. The microtubes were subjected to three cycles of disruption (2 minutes at 25 Hertz (Hz)) in the TissueLyzer IITM. Lysates were clarified by centrifugation and the supernatant was transferred to fresh tubes and lysate concentration was determined using a BCA assay (Pierce®). Polyacrylamide gel electrophoresis was carried out on 4-20% […] gels. […] The membrane was visualized on an Odyssey CLxTM imager (LiCorTM) and intensities of the 700 and 800 nm channels were recorded. […] Signal intensities were normalized to total protein and the ratio of 700 nm normalized signal/800 nm normalized signal was determined. Linear fits were assessed where applicable using the linear regression function of PrismTM. Statistical significance was determined using an unpaired t-test using PrismTM. 1) StainFree gel image is quantitated using ImageLabTM software to analyze the image from the ChemiDocTM Imaging System. […] Signal intensities were normalized to total protein and the ratio of 700 nm normalized signal/800 nm normalized signal was determined. Linear fits were assessed were applicable using a linear regression function. […]

OC[C@@H](O)[C@@H](O)[C@@H](O)CO [Ribitol, (2R,3s,4S)-Pentane-1,2,3,4,5-pentol]
αDG expression (total αDG signal) (normalized to C57 untreated control (FIG. 6B)): increased | ratio of glycosylated αDG to total αDG (normalized to C57 untreated control (FIG. 6C)): increased
